PubChem BioAssay (NCI)
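Test compounds were applied to cells in 96-well plates for 48 hours at 5 doses. Abbreviation: GI50, concentration required for 50% inhibition of growth. TGI: total growth inhibition.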

Tests used:
Test in all cases: DTP human tumour cell line panel, 48 h
HCC-2998 colon = tested on: HCC-2998 colon
HOP-92 NSCLC = tested on: HOP-92 NSCLC
OVCAR-3 ovarian = tested on: OVCAR-3 ovarian
OVCAR-4 ovarian = tested on: OVCAR-4 ovarian
SNB-19 CNS = tested on: SNB-19 CNS
SW-620 colon = tested on: SW-620 colon
UO-31 renal = tested on: UO-31 renal
BT-549 breast = tested on: BT-549 breast
MDA-MB-231 breast = tested on: MDA-MB-231 breast
PC-3 prostate = tested on: PC-3 prostate
SR leukemia = tested on: SR leukemia
T-47D breast = tested on: T-47D breast
NCI/ADR-RES ovarian = tested on: NCI/ADR-RES ovarian

Structure (SMILES)	TGI (HCC-2998 colon)	TGI (HOP-92 NSCLC)	TGI (OVCAR-3 ovarian)	TGI (OVCAR-4 ovarian)	TGI (SNB-19 CNS)	TGI (SW-620 colon)	TGI (UO-31 renal)	TGI (BT-549 breast)	TGI (MDA-MB-231 breast)	TGI (PC-3 prostate)	TGI (SR leukemia)	TGI (T-47D breast)	TGI (NCI/ADR-RES ovarian)	GI50 (HOP-92 NSCLC)	GI50 (MDA-MB-231 breast)	GI50 (NCI/ADR-RES ovarian)	GI50 (OVCAR-4 ovarian)	GI50 (SR leukemia)	GI50 (SW-620 colon)	GI50 (HCC-2998 colon)
CCOC(=O)CC1=N/C(=N/C(=N)N[N+](=O)[O-])SC1	> 100 µM	> 100 µM	> 100 µM	> 100 µM	> 100 µM	> 100 µM	> 100 µM													
Cc1cn2cc(-c3cccs3)nc2s1	> 100 µM	> 100 µM	> 100 µM	> 100 µM	> 100 µM	> 100 µM	> 100 µM	> 100 µM	> 100 µM	> 100 µM	> 100 µM	> 100 µM								
O=C1CSC(c2c[nH]c3ccccc23)N1c1cccc(Cl)c1 (stereo not drawn)	> 100 µM	> 100 µM	> 100 µM	> 100 µM	> 100 µM	> 100 µM	> 100 µM	96.6 µM	80.2 µM			> 100 µM	> 100 µM							
Nc1ccccc1N	> 100 µM	> 100 µM	> 100 µM	> 100 µM	> 100 µM	> 100 µM	> 100 µM				> 100 µM									
COc1ccc(/C=C/C(=O)c2cc(OC)cc(OC)c2)cc1	16.3 µM	60.4 µM	15.1 µM	18 µM	7.3 µM	17.6 µM	12.4 µM		> 28.3 µM	20.7 µM		11.9 µM	9.02 µM							
Cc1cccc2cc(/C=C/C(=O)/C=C/c3ccc(Cl)cc3)c(=O)[nH]c12		> 100 µM		> 100 µM		> 100 µM			> 100 µM		11.6 µM		> 100 µM	> 100 µM	3.71 µM	> 100 µM	> 100 µM	2.72 µM	2.98 µM	
COC(=O)c1cc2ccc(O)c(O)c2cn1	> 100 µM	26.3 µM	30.8 µM	21.7 µM		32.4 µM	32.2 µM		25.2 µM	56.4 µM			46.1 µM			20.4 µM				> 100 µM
COc1cc2c(cc1OS(C)(=O)=O)N=C[C@@H]1CCCN1C2=O	> 100 µM	> 100 µM	> 100 µM	> 100 µM	> 100 µM	> 100 µM	> 100 µM		> 100 µM		> 100 µM	> 100 µM								
C/C=C1/CC(C(=O)OC)N(C(=O)OCc2ccccc2)C1=S (stereo not drawn)	> 100 µM	> 100 µM	> 100 µM	> 100 µM	> 100 µM	> 100 µM	> 100 µM	> 100 µM	> 100 µM	> 100 µM			> 100 µM							
